Test results: patent US12152139B2, “Composition, film, optical filter, laminate, solid-state imaging element, image display device, and infrared sensor” (FUJIFILM Corporation, priority 2018, dated 2024)
Converted amounts (≈) assume the structure as drawn.

Assay: Solubility in propylene glycol methyl ether acetate
Type: physicochemical
Settings: organic solvent or mixture, thermodynamic from solid, at 25° C., read-out: solubility in propylene glycol methyl ether acetate (compound (1))
Experimental: <Measurement of Solubility of Near Infrared Absorbing Pigment and Compound (1)>
Under atmospheric pressure, 99 to 101 g of a sample (precisely weighed value is defined as X g) was added to 1 L of propylene glycol methyl ether acetate at 25° C., and the mixture was stirred for 30 minutes. Next, the mixture was allowed to stand for 5 minutes and filtered, and the […] was dried under reduced pressure at 80° C. for 2 hours and weighed precisely (precisely weighed value is defined as Y g). Solubility of the sample dissolved in propylene glycol methyl ether acetate was calculated from the following expression. Solubility (g/L)=X−Y <Method for Quantifying Amine Compound in Composition>

| solubility at 30 min [µg/mL] | SMILES |
| --- | --- |
| 100 to 500 (≈ 105 to 524 µM) | O=C1C(=C2C(O)=CC(N(c3ccc(S(=O)(=O)O)cc3)c3ccc(S(=O)(=O)O)cc3)C=C2O)C(O)=C1c1c(O)cc(N(c2ccc(S(=O)(=O)O)cc2)c2ccc(S(=O)(=O)O)cc2)cc1O (centres unmarked) [Example P2] |
| ≥ 500 | O=c1c2ccccc2[nH]c2cc3c(=O)c4ccccc4n(CCCCS(=O)(=O)O)c3cc12 [Example P3] |
